Patent publication US12258332B2, “ASGPR cell surface receptor binding compounds and conjugates” (Lycia Therapeutics, Inc., priority 2021, dated 2025)
“Also recorded” adds a separate entry of the source.

Assays:
[1] = test system: HepG2 cells; experiment: Uptake of IgG2a antibody conjugates into HepG2 cells; type: cell-based, human; conditions: one hour incubation
Protocol: The uptake of antibody conjugates of exemplary M6PR or ASGPR binding compounds was assessed in Hep G2 cells, using a method similar to that described in Example above.

[2] = test system: HepG2 cells; experiment: Uptake of Alexa488-labelled target IgE bound to omalizumab (OMA) conjugates in HepG2 cells, flow cytometry; type: cell-based, human; conditions: omalizumab (anti-IgE) conjugate bound to IgE-Alexa488, equal molar ratios; 1 hour
Protocol: (§1) The omalizumab conjugates of Example 60 were bound to IgE-Alexa488 (prepared according to Example 62), as follows: equal molar ratios of omalizumab (anti-IgE) conjugate and IgE-Alexa488 were added in tissue culture media for 30 minutes at room temperature. The resulting anti-IgE conjugate:IgE antibody-Alexa488 compositions were added to HepG2 cells (100 k cells/50 ul per well, n=2), and Alexa488 fluorescence levels in the cells were measured at 1 hour by flow cytometry. As the fluorescently labelled target (IgE antibody) accumulates in cells, the fluorescence presents a way to measure total intracellular uptake by cells over time.
as §1, with “OMA Ab” for “The omalizumab”, “example compounds I-160-I-163 and I-141” for “Example 60”, “by adapting procedure in” for “according to”, “61),” for “62),”, “OMA(anti-IgE)” for “omalizumab (anti-IgE)”

[3] = Pharmacokinetic study of OMA-linked compounds in mice, serum hIgG by ELISA; type: in vivo; conditions: IV 5 mg/kg, female C57BL/6 mice, up to 168 hours
Protocol: Pharmacokinetic (PK) studies were undertaken to determine the pharmacokinetic profile of various OMA linked example compounds (I-161-I-163).
Protocol: Female C57BL/6 mice are dosed via IV with 5 mg/kg of OMA-example compounds, and OMA-reference. Serum samples are collected at 0.083, 0.25, 0.5, 1, 2, 4, 8, 24, 48, 72, and 168 hours after dosing with 3 animals per timepoint.
Serum hIgG concentrations were measured by ELISA.

[4] = test system: IgE; experiment: Pharmacodynamic study: clearance of target IgE by OMA conjugates in mice, serum hIgE by ELISA; type: in vivo, C57BL/6 mice; conditions: 0.1 mg/kg of OMA conjugate, IgE 1 mg/kg
Protocol: Protocol: Female C57BL/6 mice were IV dosed 1 mg/kg of IgE followed by 0.1, 0.3, 1, or 3 mg/kg of OMA-I-163 16 hours later. Serum samples were collected at 0 (pre-bleed), 1, 4, and 24 hours after OMA-I-163 dose with 3 animals per timepoint.
Serum hIgE and hIgG concentrations were measured by ELISA.
Protocol: Female C57BL/6 mice were IV dosed 1 mg/kg of IgE followed by 0.1 mg/kg of OMA-I-163, OMA-I-162, OMA-I-161, and OMA-I-160 16 hours later. Serum samples were collected at 0 (pre-bleed), 1, 4, and 24 hours after LYTAC dose with 3 animals per timepoint.
Serum concentrations were measured by Elisa.

SMILES: O=C(CCOCCOCCOCCOCCn1cc(CCCCNC(=S)Nc2ccc(O[C@H]3O[C@H](CCP(=O)(O)O)[C@@H](O)[C@H](O)[C@@H]3O)cc2)nn1)Oc1c(F)c(F)c(F)c(F)c1F [Compound 520, reference compound]
- HepG2 cellular uptake of antibody conjugate (cell fluorescence, MFI) [1]: comparable HepG2 cellular uptake; also recorded: comparable robust uptake into HepG2 cells

SMILES: CC(=O)N[C@H]1[C@H](OCCCCC(=O)NCCCNC(=O)CCOCC(COCCC(=O)NCCCNC(=O)CCCCO[C@@H]2O[C@H](CO)[C@H](O)[C@H](O)[C@H]2NC(C)=O)(COCCC(=O)NCCCNC(=O)CCCCO[C@@H]2O[C@H](CO)[C@H](O)[C@H](O)[C@H]2NC(C)=O)NC(=O)CCCCCCCCCCC(=O)Oc2c(F)c(F)c(F)c(F)c2F)O[C@H](CO)[C@H](O)[C@@H]1O [Compound 1209]
- HepG2 cellular uptake of antibody conjugate (cell fluorescence, MFI) [1]: comparable HepG2 cellular uptake

SMILES: CC(=O)N[C@H]1[C@H](OCCCCC(=O)NCCCNC(=O)CCOCC(COCCC(=O)NCCCNC(=O)CCCCO[C@@H]2O[C@H](CO)[C@H](O)[C@H](O)[C@H]2NC(C)=O)(COCCC(=O)NCCCNC(=O)CCCCO[C@@H]2O[C@H](CO)[C@H](O)[C@H](O)[C@H]2NC(C)=O)NC(=O)CCCCCCCCCCCN2C(=O)C=CC2=O)O[C@H](CO)[C@H](O)[C@@H]1O [Compound 1210]
- HepG2 cellular uptake of antibody conjugate (cell fluorescence, MFI) [1]: comparable HepG2 cellular uptake

SMILES: CC(=O)N[C@@H]1[C@@H](O)[C@@H](O)[C@@H](CO)O[C@H]1Cc1cn(CCOCCOCCOCCNC(=O)CCC(CCC(=O)NCCOCCOCCOCCn2cc(C[C@@H]3O[C@H](CO)[C@H](O)[C@H](O)[C@H]3NC(C)=O)nn2)(CCC(=O)NCCOCCOCCOCCn2cc(C[C@@H]3O[C@H](CO)[C@H](O)[C@H](O)[C@H]3NC(C)=O)nn2)NC(=O)CCCCCCCCCCC(=O)Oc2c(F)c(F)c(F)c(F)c2F)nn1 [Compound I-140, perfluorophenyl 1-(4-(((2S,3R,4R,5R,6R)-3-acetamido-4,5-dihydroxy-6-(hydroxymethyl)tetrahydro-2H-pyran-2-yl)methyl)-1H-1,2,3-triazol-1-yl)-16,16-bis(1-(4-(((2S,3R,4R,5R,6R)-3-acetamido-4,5-dihydroxy-6-(hydroxymethyl)tetrahydro-2H-pyran-2-yl)methyl)-1H-1,2,3-triazol-1-yl)-13-oxo-3,6,9-trioxa-12-azapentadecan-15-yl)-13,18-dioxo-3,6,9-trioxa-12,17-diazanonacosan-29-oate]
- relative uptake activity of Alexa488 labeled-target IgE in HepG2 cells [2]: comparable activity to the conjugate having the 0-glycoside

SMILES: CC(=O)N[C@@H]1[C@@H](O)[C@@H](O)[C@@H](CO)O[C@H]1SCCC(=O)NCCCCCNC(=O)CCOCC(COCCC(=O)NCCCCCNC(=O)CCS[C@@H]1O[C@H](CO)[C@H](O)[C@H](O)[C@H]1NC(C)=O)(COCCC(=O)NCCCCCNC(=O)CCS[C@@H]1O[C@H](CO)[C@H](O)[C@H](O)[C@H]1NC(C)=O)NC(=O)CCCCCCCCCCC(=O)NCCN1C(=O)C=CC1=O [Compound I-162]
- relative uptake activity of Alexa488 labeled-target IgE in HepG2 cells [2]: most active anomeric position variants
- PK profile / clearance of OMA-linked compound (serum hIgG) [3]: distinct PK profiles from reference compound I-163
- IgE clearance efficiency compared to reference OMA-I-163 [4]: clear IgE more efficiently than the reference compound

SMILES: CC(=O)N[C@H]1[C@H](OCCCCC(=O)NCCCNC(=O)CCOCC(COCCC(=O)NCCCNC(=O)CCCCO[C@@H]2O[C@H](CO)[C@H](O)[C@H](O)[C@H]2NC(C)=O)(COCCC(=O)NCCCNC(=O)CCCCO[C@@H]2O[C@H](CO)[C@H](O)[C@H](O)[C@H]2NC(C)=O)NC(=O)CCc2cn(CCOCCOCCOCCOCCOCCOCCOCCOCCOCCOCCOCCOCCOCCOCCOCCOCCOCCOCCOCCOCCOCCOCCOCCOCCC(=O)Oc3c(F)c(F)c(F)c(F)c3F)nn2)O[C@H](CO)[C@H](O)[C@@H]1O [Compound I-137]
- relative uptake activity of Alexa488 labeled-target IgE in HepG2 cells [2]: comparable activity to the reference conjugate; also recorded: comparable activity to a reference conjugate

SMILES: CC(=O)N[C@@H]1[C@@H](O)[C@@H](O)[C@@H](CO)O[C@H]1Cc1cn(CCOCCOCCOCCNC(=O)CCC(CCC(=O)NCCOCCOCCOCCn2cc(C[C@@H]3O[C@H](CO)[C@H](O)[C@H](O)[C@H]3NC(C)=O)nn2)(CCC(=O)NCCOCCOCCOCCn2cc(C[C@@H]3O[C@H](CO)[C@H](O)[C@H](O)[C@H]3NC(C)=O)nn2)NC(=O)CCCCCCCCCCC(=O)NCCN2C(=O)C=CC2=O)nn1 [Compound I-160]
- relative uptake activity of Alexa488 labeled-target IgE in HepG2 cells [2]: most active anomeric position variants
- PK profile / clearance of OMA-linked compound (serum hIgG) [3]: distinct PK profiles from reference compound I-163
- IgE clearance efficiency compared to reference OMA-I-163 [4]: clear IgE more efficiently than the reference compound

SMILES: CC(=O)N[C@@H]1[C@@H](O)[C@@H](O)[C@@H](CO)O[C@H]1n1cc(COCCOCCOCCNC(=O)CCC(CCC(=O)NCCOCCOCCOCc2cn([C@@H]3O[C@H](CO)[C@H](O)[C@H](O)[C@H]3NC(C)=O)nn2)(CCC(=O)NCCOCCOCCOCc2cn([C@@H]3O[C@H](CO)[C@H](O)[C@H](O)[C@H]3NC(C)=O)nn2)NC(=O)CCCCCCCCCCC(=O)Oc2c(F)c(F)c(F)c(F)c2F)nn1 [Compound I-143, perfluorophenyl 1-(1-((2R,3R,4R,5R,6R)-3-acetamido-4,5-dihydroxy-6-(hydroxymethyl)tetrahydro-2H-pyran-2-yl)-1H-1,2,3-triazol-4-yl)-15,15-bis(1-(1-((2R,3R,4R,5R,6R)-3-acetamido-4,5-dihydroxy-6-(hydroxymethyl)tetrahydro-2H-pyran-2-yl)-1H-1,2,3-triazol-4-yl)-12-oxo-2,5,8-trioxa-11-azatetradecan-14-yl)-12,17-dioxo-2,5,8-trioxa-11,16-diazaoctacosan-28-oate]
- relative uptake activity of Alexa488 labeled-target IgE in HepG2 cells [2]: superior activity to the reference conjugate

SMILES: CC(=O)N[C@H]1[C@H](OCCCCC(=O)NCCCNC(=O)CCOCC(COCCC(=O)NCCCNC(=O)CCCCO[C@@H]2O[C@H](CO)[C@H](O)[C@H](O)[C@H]2NC(C)=O)(COCCC(=O)NCCCNC(=O)CCCCO[C@@H]2O[C@H](CO)[C@H](O)[C@H](O)[C@H]2NC(C)=O)NC(=O)CCOCCOCCOCCOCCC(=O)Oc2c(F)c(F)c(F)c(F)c2F)O[C@H](CO)[C@H](O)[C@@H]1O [Compound I-145]
- relative uptake activity of Alexa488 labeled-target IgE in HepG2 cells [2]: superior uptake to conjugates having a valency of 2 or 1

SMILES: CO[C@@H]1O[C@H](CO)[C@H](O)[C@H](O)[C@H]1NC(=O)COCCc1cn(CCOCCOCCNC(=O)CCC(CCC(=O)NCCOCCOCCn2cc(CCOCC(=O)N[C@H]3[C@H](OC)O[C@H](CO)[C@H](O)[C@@H]3O)nn2)(CCC(=O)NCCOCCOCCn2cc(CCOCC(=O)N[C@H]3[C@H](OC)O[C@H](CO)[C@H](O)[C@@H]3O)nn2)NC(=O)CCCCCCCCCCC(=O)Oc2c(F)c(F)c(F)c(F)c2F)nn1 [Compound I-155]
- relative uptake activity of Alexa488 labeled-target IgE in HepG2 cells [2]: less active than the 1-position linked conjugate

SMILES: CC(=O)N[C@@H]1[C@@H](O)[C@@H](O)[C@@H](CO)C[C@H]1n1cc(COCCOCCOCCNC(=O)CCC(CCC(=O)NCCOCCOCCOCc2cn([C@@H]3O[C@H](CO)[C@H](O)[C@H](O)[C@H]3NC(C)=O)nn2)(CCC(=O)NCCOCCOCCOCc2cn([C@@H]3O[C@H](CO)[C@H](O)[C@H](O)[C@H]3NC(C)=O)nn2)NC(=O)CCCCCCCCCCC(=O)NCCN2C(=O)C=CC2=O)nn1 [Compound I-161]
- relative uptake activity of Alexa488 labeled-target IgE in HepG2 cells [2]: essentially identical activity to the reference conjugate; also recorded: most active anomeric position variants
- PK profile / clearance of OMA-linked compound (serum hIgG) [3]: distinct PK profiles from reference compound I-163
- IgE clearance efficiency compared to reference OMA-I-163 [4]: clear IgE more efficiently than the reference compound
